20 molecules from ChEMBL document CHEMBL1136430, “Chain-branched acyclic phenethylthiocarbamates as vanilloid receptor antagonists” (Bioorg Med Chem Lett, 2003) can be followed below.

In general, IC50 refers to the concentration at which inhibition is half-maximal. A lower IC50 goes with inhibition by little substance. The EC50 is the concentration needed to bring the measured effect to its halfway point. Read a low EC50 as greater potency.

SMILES strings stand for the structures.

Assay [1] deals with T1, Vanilloid receptor (Rattus norvegicus, UniProt Q9ERZ8+Q9WUD2+O35433). Kind of assay: Ability to inhibit [Ca2+] influx neonatal rat cultured spinal sensory neurons. Format: functional.
In assay [2] the target is T1, Vanilloid receptor. Kind of assay: Ability to cause [Ca2+] influx in neonatal rat cultured spinal sensory neurons. Format: functional.

Consider `CCC(CCc1ccc(O)c(OC)c1)O/C(S)=N/CCc1ccccc1` (stereo not given), for which the IC50 at Vanilloid receptor [1] came out at 6.3 µM. At Vanilloid receptor [2], this molecule had an EC50 of over 100 µM.
Turning to `COc1cc(CCC(CCc2ccc(C(F)(F)F)cc2)O/C(S)=N/CCc2ccccc2)ccc1O` (stereo not given), the IC50 on Vanilloid receptor [1] amounted to 10.7 µM. The EC50 at Vanilloid receptor [2] was over 100 µM.
For `COc1cc(CCC(CCc2ccccc2)O/C(S)=N/CCc2ccccc2)ccc1O` (stereo not given), in that order: 19.2 µM and over 100 µM.
The molecule `COc1cc(CCC(CCCc2ccccc2)O/C(S)=N/CCc2ccccc2)ccc1O` (stereo not given) registered an IC50 on Vanilloid receptor [1] of over 30 µM. The molecule also showed an EC50 on Vanilloid receptor [2] of over 100 µM.
For `Oc1cc2c(cc1O)CN(C(=S)NCCc1ccc(Cl)cc1)CCC2` [CAPSAZEPINE], in that order: 0.6 µM and over 100 µM.
Turning to `CCC(CCc1ccc(O)c(OC)c1)N(Cc1ccccc1)/C(S)=N/CCc1ccccc1` (stereo not given), the IC50 against Vanilloid receptor [1] amounted to 20.9 µM. The same molecule registered an EC50 on Vanilloid receptor [2] of over 100 µM.
`COc1cc(CCC(O/C(S)=N/CCc2ccccc2)c2ccccc2)ccc1O` (stereo not given) gave an IC50 against Vanilloid receptor [1] of over 30 µM. For the same molecule, the EC50 at Vanilloid receptor [2] was over 100 µM.
For `CCC(CCc1ccc(O)c(OC)c1)CC(=O)NCCc1ccccc1` (stereo not given), in that order: over 30 µM and over 100 µM.
For `CCC(CCc1ccc(O)c(OC)c1)C/C(S)=N/CCc1ccccc1` (stereo not given), in that order: over 30 µM and over 100 µM.
For `COc1cc(CCCC(C)O/C(S)=N/CCc2ccccc2)ccc1O` (stereo not given), in that order: over 30 µM and over 100 µM.
At Vanilloid receptor [1], `COc1cc(CCCO/C(S)=N/CCc2ccccc2)ccc1O` showed an IC50 of over 30 µM. This molecule also gave an EC50 at Vanilloid receptor [2] of over 100 µM.
Consider `COc1cc(CCC(C)O/C(S)=N/CCc2ccccc2)ccc1O` (stereo not given), for which, at Vanilloid receptor [1], the IC50 amounted to 9.9 µM. Moreover, on Vanilloid receptor [2], the EC50 was over 100 µM.
For the molecule `COc1cc(CCC(Cc2ccccc2)O/C(S)=N/CCc2ccccc2)ccc1O` (stereo not given), the IC50 at Vanilloid receptor [1] was determined as 25 µM. Also, the EC50 at Vanilloid receptor [2] is over 100 µM.
For the molecule `CCCC(CCc1ccc(O)c(OC)c1)O/C(S)=N/CCc1ccccc1` (stereo not given), the IC50 on Vanilloid receptor [1] turned out to be 27.9 µM. At Vanilloid receptor [2], this molecule displayed an EC50 of over 100 µM.
With `CCC(CCc1ccc(O)c(OC)c1)N(C)/C(S)=N/CCc1ccccc1` (stereo not given), the IC50 at Vanilloid receptor [1] turned out to be 27.2 µM. Further, the EC50 at Vanilloid receptor [2] is over 100 µM.
For `COc1cc(CC(C)O/C(S)=N/CCc2ccccc2)ccc1O` (stereo not given) the same measures were over 30 µM and over 100 µM.
Molecule `CCC(CCc1ccc(O)c(OC)c1)N(CCc1ccccc1)/C(S)=N/CCc1ccccc1` (stereo not given) yielded an IC50 on Vanilloid receptor [1] of over 30 µM. Besides, the EC50 at Vanilloid receptor [2] is over 100 µM.
`CCC(CCc1ccc(O)c(OC)c1)OC(=O)NCCc1ccccc1` (stereo not given): the IC50 at Vanilloid receptor [1] was over 30 µM. For the same molecule, at Vanilloid receptor [2], the EC50 is over 100 µM.
For `CCC(CCc1ccc(O)c(OC)c1)NC(=O)NCCc1ccccc1` (stereo not given) the same measures were over 30 µM and over 100 µM.
`CCC(CCc1ccc(O)c(OC)c1)/N=C(\S)NCCc1ccccc1` (stereo not given) registered an IC50 on Vanilloid receptor [1] of 28.5 µM. The EC50 on Vanilloid receptor [2] is over 100 µM.
